Experimental data taken from US20250163104A1, “MACROCYCLIC IMMUNOMODULATORS” (priority 2021, published 2025).
pIC50: −log10 of the molar value. Where a SMILES comes first, the peptide text is derived from it. Bridges are numbered along the chain shown (N, C = ends). [ ]: non-standard residue; d: D form. The star is where a group is joined. ξ: configuration not given here. Bip(3'-COOH) = N[C@@H](Cc1ccc(-c2cccc(C(=O)O)c2)cc1)C(=O)O; Phe(3-CF3) = N[C@@H](Cc1cccc(C(F)(F)F)c1)C(=O)O; Phe(4-COOH) = N[C@@H](Cc1ccc(C(=O)O)cc1)C(=O)O; Bip = N[C@@H](Cc1ccc(-c2ccccc2)cc1)C(=O)O; Phe(4-NH2) = Nc1ccc(C[C@H](N)C(=O)O)cc1; Phe(3-Me) = Cc1cccc(C[C@H](N)C(=O)O)c1; 4Pal = N[C@@H](Cc1ccncc1)C(=O)O; Cha = N[C@@H](CC1CCCCC1)C(=O)O; Ile(3ξ) = CCC(C)[C@H](N)C(=O)O; Carboxymethyl = O=C(O)C*; Nle = CCCC[C@H](N)C(=O)O; Orn = NCCC[C@H](N)C(=O)O; Dab = NCC[C@H](N)C(=O)O; Abu = CC[C@H](N)C(=O)O; Dap = NC[C@H](N)C(=O)O

What follows are compounds tested against T1, human PD-1 / PD-L1-Ig binding on Jurkat cell line over-expressing human PD-1 (Jurkat-PD-1) (Homo sapiens, UniProt Q15116) (assay: Jurkat-PD-1 Cell Binding High-Content Screening Assay (CBA)). Conditions: Jurkat-PD-1 cells, PE-labeled PD-L1-Ig 20 nM final; read-out: Jurkat HPD1_PDL1 IC50.
T1 construct: expressed in transfected cells; host or cells: Jurkat
Format: cell-based
Outline: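 Jurkat cells over-expressing human PD-1, in DMEM/10% FCS, pre-incubated with compound 2 h at 37° C. PE-labeled human PD-L1-Ig (20 nM final) added for 1 h; cells fixed in paraformaldehyde with Hoechst 33342 nuclear stain, washed, and bound fluorescence quantified by high-content imaging.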

T1 sequence (Q15116 25-288): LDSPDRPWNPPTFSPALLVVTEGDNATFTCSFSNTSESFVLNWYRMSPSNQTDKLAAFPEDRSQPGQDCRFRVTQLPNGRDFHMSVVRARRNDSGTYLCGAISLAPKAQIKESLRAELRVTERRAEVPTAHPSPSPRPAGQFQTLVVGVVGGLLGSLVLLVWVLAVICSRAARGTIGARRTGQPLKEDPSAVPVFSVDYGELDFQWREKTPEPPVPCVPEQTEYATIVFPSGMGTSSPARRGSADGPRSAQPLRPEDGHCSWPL

Structure (SMILES) | pIC50
CC[C@H](C)[C@@H]1NC(=O)[C@H](Cc2ccc(-c3ccccc3)cc2)NC(=O)[C@H](C(C)C)NC(=O)[C@H](Cc2cccc(OC)c2)NC(=O)[C@H](CC(=O)O)NC(=O)[C@H](Cc2ccc(C(=O)O)cc2)NC(=O)[C@H](Cc2ccncc2)NC(=O)CSC[C@@H](C(=O)N[C@@H](C)C(N)=O)NC(=O)[C@H]([C@@H](C)O)NC(=O)[C@H](C(C)C)NC(=O)[C@H](CC(C)C)NC(=O)[C@H](CCN)NC(=O)[C@@H](CC(C)C)NC(=O)[C@H](CCCN)NC1=O [Compound 1181] | 7.92
CC(C)C[C@H]1NC(=O)[C@H](CCCN)NC(=O)[C@H](CN)NC(=O)[C@H](Cc2ccc(-c3ccccc3)cc2)NC(=O)[C@H](C(C)C)NC(=O)[C@H](Cc2c[nH]c3ccccc23)NC(=O)[C@H](CC(=O)O)NC(=O)[C@H](Cc2ccc(O)cc2)NC(=O)[C@H](CC(N)=O)NC(=O)CSC[C@@H](C(=O)N[C@@H](C)C(N)=O)NC(=O)[C@H]([C@@H](C)O)NC(=O)[C@H](C(C)C)NC(=O)[C@H](CC2CCCCC2)NC(=O)[C@H](CCN)NC1=O [Compound 1380] | 7.77
CC[C@H](C)[C@@H]1NC(=O)[C@H](Cc2ccc(-c3ccccc3)cc2)NC(=O)[C@H](C(C)C)NC(=O)[C@H](Cc2c[nH]c3ccccc23)NC(=O)[C@H](CC(=O)O)NC(=O)[C@H](Cc2ccc(OCC(=O)O)cc2)NC(=O)[C@H](CN)NC(=O)CSC[C@@H](C(=O)N[C@@H](C)C(N)=O)NC(=O)[C@H]([C@@H](C)O)NC(=O)[C@H](C(C)C)NC(=O)[C@H](CC2CCCCC2)NC(=O)[C@H](Cc2cnc[nH]2)NC(=O)[C@@H](CC(C)C)NC(=O)[C@H](CCCN)NC1=O [Compound 1589] | 7.79
CC(C)C[C@H]1NC(=O)[C@H](CCCN)NC(=O)[C@H](C(C)C)NC(=O)[C@H](Cc2ccc(-c3ccccc3)cc2)NC(=O)[C@H](C(C)C)NC(=O)[C@H](Cc2c[nH]c3ccccc23)NC(=O)[C@H](CC(=O)O)NC(=O)[C@H](Cc2ccc(OCC(=O)O)cc2)NC(=O)[C@H](Cc2ccc(OCC(=O)O)cc2)NC(=O)CSC[C@@H](C(=O)N[C@@H](C)C(N)=O)NC(=O)[C@H]([C@@H](C)O)NC(=O)[C@H](C(C)C)NC(=O)[C@H](CC2CCCCC2)NC(=O)[C@H](CCN)NC1=O [Compound 1690] | 7.91
CCCC[C@@H]1NC(=O)[C@H](Cc2c[nH]c3ccccc23)NC(=O)[C@H](CC(=O)O)NC(=O)[C@H](Cc2ccc(OCC(=O)O)cc2)NC(=O)[C@H](CN)NC(=O)CSC[C@@H](C(=O)N[C@@H](C)C(N)=O)NC(=O)[C@H]([C@@H](C)O)NC(=O)[C@H](C(C)C)NC(=O)[C@H](CC2CCCCC2)NC(=O)[C@H](CCN)NC(=O)[C@@H](CC(C)C)NC(=O)[C@H](CCCN)NC(=O)[C@H](C(C)C)NC(=O)[C@H](Cc2ccc(-c3ccccc3)cc2)NC1=O [Compound 1734] ({CH2CO}-[Dap]Y(Carboxymethyl)DW[Nle][Bip]V[Orn][dL][Dab][Cha]VTCA-NH2; thioether N-14) | 7.97
CC(C)C[C@@H]1NC(=O)[C@H](CCN)NC(=O)[C@@H](CC(C)C)NC(=O)[C@H](C)NC(=O)[C@H](C(C)C)NC(=O)[C@H](Cc2ccc(-c3ccccc3)cc2)NC(=O)[C@H](C(C)C)NC(=O)[C@H](Cc2c[nH]c3ccccc23)NC(=O)[C@H](CC(=O)O)NC(=O)[C@H](Cc2ccc(O)cc2)NC(=O)[C@H](CC(N)=O)NC(=O)CSC[C@@H](C(=O)N[C@@H](C)C(N)=O)NC(=O)[C@H]([C@@H](C)O)NC(=O)[C@H](C(C)C)NC1=O [Compound 1014] ({CH2CO}-NYDWV[Bip]VA[dL][Dab]LVTCA-NH2; thioether N-14) | 7.78
CC(C)C[C@H]1NC(=O)[C@H](CCCN)NC(=O)[C@H](CCC(=O)O)NC(=O)[C@H](Cc2ccc(-c3ccccc3)cc2)NC(=O)[C@H](C(C)C)NC(=O)[C@H](Cc2cccc(C(F)(F)F)c2)NC(=O)[C@H](CC(=O)O)NC(=O)[C@H](Cc2ccncc2)NC(=O)[C@H](Cc2ccccc2)NC(=O)CSC[C@@H](C(=O)N[C@@H](C)C(N)=O)NC(=O)[C@H]([C@@H](C)O)NC(=O)[C@H](C(C)C)NC(=O)[C@H](CC2CCCCC2)NC(=O)[C@H](CCN)NC1=O [Compound 1463] ({CH2CO}-F[4Pal]D[Phe(3-CF3)]V[Bip]E[Orn][dL][Dab][Cha]VTCA-NH2; thioether N-14) | 7.61
CC(C)C[C@H]1NC(=O)[C@H](CCCN)NC(=O)[C@H](CCC(=O)O)NC(=O)[C@H](Cc2ccc(-c3ccccc3)cc2)NC(=O)[C@H](C(C)C)NC(=O)[C@H](Cc2cccc(Cl)c2)NC(=O)[C@H](CC(=O)O)NC(=O)[C@H](Cc2ccc(C(=O)O)cc2)NC(=O)[C@H](Cc2ccc(OCC(=O)O)cc2)NC(=O)CSC[C@@H](C(=O)N[C@@H](C)C(N)=O)NC(=O)[C@H]([C@@H](C)O)NC(=O)[C@H](C(C)C)NC(=O)[C@H](CC2CCCCC2)NC(=O)[C@H](CCN)NC1=O [Compound 1492] | 7.56
Cc1cccc(C[C@@H]2NC(=O)[C@H](CC(=O)O)NC(=O)[C@H](Cc3ccc(C(=O)O)cc3)NC(=O)[C@H](Cc3ccc(OCC(=O)O)cc3)NC(=O)CSC[C@@H](C(=O)N[C@@H](C)C(N)=O)NC(=O)[C@H]([C@@H](C)O)NC(=O)[C@H](C(C)C)NC(=O)[C@H](CC3CCCCC3)NC(=O)[C@H](CCN)NC(=O)[C@@H](Cc3ccccc3)NC(=O)[C@H](CCCN)NC(=O)[C@H](CCC(=O)O)NC(=O)[C@H](Cc3ccc(-c4ccccc4)cc3)NC(=O)[C@H](C(C)C)NC2=O)c1 [Compound 1437] ({CH2CO}-Y(Carboxymethyl)[Phe(4-COOH)]D[Phe(3-Me)]V[Bip]E[Orn][dF][Dab][Cha]VTCA-NH2; thioether N-14) | 7.78
CC[C@@H]1NC(=O)[C@H](Cc2c[nH]c3ccccc23)NC(=O)[C@H](CC(=O)O)NC(=O)[C@H](Cc2ccc(OCC(=O)O)cc2)NC(=O)[C@H](CN)NC(=O)CSC[C@@H](C(=O)N[C@@H](C)C(N)=O)NC(=O)[C@H]([C@@H](C)O)NC(=O)[C@H](C(C)C)NC(=O)[C@H](CC2CCCCC2)NC(=O)[C@H](CCN)NC(=O)[C@@H](CC(C)C)NC(=O)[C@H](CCCN)NC(=O)[C@H]([C@@H](C)CC)NC(=O)[C@H](Cc2ccc(-c3ccccc3)cc2)NC1=O [Compound 1721] ({CH2CO}-[Dap]Y(Carboxymethyl)DW[Abu][Bip]I[Orn][dL][Dab][Cha]VTCA-NH2; thioether N-14) | 7.95

Results, then the compound that gave them:

pIC50 | Structure (SMILES)
7.42 | CCC(C)[C@@H]1NC(=O)[C@H](Cc2ccc(-c3ccccc3)cc2)NC(=O)[C@H](C(C)C)NC(=O)[C@H](Cc2c[nH]c3ccccc23)NC(=O)[C@H](CC(=O)O)NC(=O)[C@H](Cc2ccc(OCC(=O)O)cc2)NC(=O)[C@H](Cc2cccc3ccccc23)NC(=O)CSC[C@@H](C(=O)N[C@@H](C)C(N)=O)NC(=O)[C@H](C(C)O)NC(=O)[C@H](C(C)C)NC(=O)[C@H](CC2CCCCC2)NC(=O)[C@H](CCN)NC(=O)[C@@H](CC(C)C)NC(=O)[C@H](CCCN)NC1=O (stereo partly drawn) [Compound 2521]
8.12 | Cc1cccc(C[C@@H]2NC(=O)[C@H](CC(=O)O)NC(=O)[C@H](Cc3ccc(C(=O)O)cc3)NC(=O)[C@H](Cc3ccncc3)NC(=O)CSC[C@@H](C(=O)N[C@@H](CCN)C(N)=O)NC(=O)[C@H](CCC(=O)O)NC(=O)[C@H](C(C)C)NC(=O)[C@H](CC3CCCCC3)NC(=O)[C@H](CCN)NC(=O)[C@@H](CC(C)C)NC(=O)[C@H](CCCN)NC(=O)[C@H](Cc3ccc(OCC(=O)O)cc3)NC(=O)[C@H](Cc3ccc(-c4ccccc4)cc3)NC(=O)[C@H](Cc3ccc(OCC(=O)O)cc3)NC2=O)c1 [Compound 2308] ({CH2CO}-[4Pal][Phe(4-COOH)]D[Phe(3-Me)]Y(Carboxymethyl)[Bip]Y(Carboxymethyl)[Orn][dL][Dab][Cha]VEC[Dab]-NH2; thioether N-14)
7.77 | CCC(C)[C@@H]1NC(=O)[C@H](Cc2ccc(-c3ccccc3)cc2)NC(=O)[C@H](C(C)C)NC(=O)[C@H](Cc2c[nH]c3ccccc23)NC(=O)[C@H](CC(=O)O)NC(=O)[C@H](Cc2ccc(-c3cccc(C(=O)O)c3)cc2)NC(=O)[C@H](CC(N)=O)NC(=O)CSC[C@@H](C(=O)N[C@@H](C)C(N)=O)NC(=O)[C@H]([C@@H](C)O)NC(=O)[C@H](C(C)C)NC(=O)[C@H](CC2CCCCC2)NC(=O)[C@H](CCN)NC(=O)[C@@H](CC(C)C)NC(=O)[C@H](CCCN)NC1=O (stereo partly drawn) [Compound 2217] ({CH2CO}-N[Bip(3'-COOH)]DWV[Bip][Ile(3ξ)][Orn][dL][Dab][Cha]VTCA-NH2; thioether N-14)
7.83 | CC(C)C[C@H]1NC(=O)[C@H](CCCN)NC(=O)[C@H](CCCNC(N)=O)NC(=O)[C@H](Cc2ccc(-c3ccccc3)cc2)NC(=O)[C@H](C(C)C)NC(=O)[C@H](Cc2c[nH]c3ccccc23)NC(=O)[C@H](CC(=O)O)NC(=O)[C@H](Cc2ccc(O)c([N+](=O)[O-])c2)NC(=O)[C@H](CN)NC(=O)CSC[C@@H](C(=O)N[C@@H](C)C(N)=O)NC(=O)[C@H]([C@@H](C)O)NC(=O)[C@H](C(C)C)NC(=O)[C@H](CC2CCCCC2)NC(=O)[C@H](CCN)NC1=O [Compound 2113]
7.58 | CC(C)C[C@H]1NC(=O)[C@H](CCCN)NC(=O)[C@H](CCC(=O)O)NC(=O)[C@H](Cc2ccc(-c3ccccc3)cc2)NC(=O)[C@H](C(C)C)NC(=O)[C@H](Cc2c[nH]c3ccccc23)NC(=O)[C@H](CC(=O)O)NC(=O)[C@H](Cc2ccc(N)cc2)NC(=O)[C@H](Cc2ccccc2)NC(=O)CSC[C@@H](C(=O)N[C@@H](C)C(N)=O)NC(=O)[C@H]([C@@H](C)O)NC(=O)[C@H](C(C)C)NC(=O)[C@H](CC2CCCCC2)NC(=O)[C@H](CCN)NC1=O [Compound 2181] ({CH2CO}-F[Phe(4-NH2)]DWV[Bip]E[Orn][dL][Dab][Cha]VTCA-NH2; thioether N-14)
